pIC50: −log10 of the molar value.
System: 156681-154-R-J1 tumor spheroid viability
Assay: Anticancer human tumor 156681-154-R-J1 patient-derived melanoma cell line growth inhibition
Conditions: spheroids with HUVEC and MSC; for pIC50: curve of first compound; for viability, T/C: stronger effect = lower value
Text: Multicellular complex tumor spheroid response to DNA repair inhibitors in combination with DNA-damaging drugs
This study explores the anticancer activities of DNA-damaging drugs and inhibitors of DNA damage repair, both as single agents and in combinations. Complex tumor spheroids comprised of malignant cells, endothelial cells and mesenchymal stem cells served as an in vitro model for human solid tumors. This model system incorporates physiologically relevant features and patient-derived or established malignant cell lines with clinically relevant genetic alterations from many tumor types. Twenty-six patient-derived or established malignant cell lines were evaluated representing sarcoma, melanoma, small cell lung cancer (SCLC), non-small cell lung cancer (NSCLC), as well as bladder, ovarian and pancreatic cancers. The concentration ranges selected for each drug and investigational agent were based upon clinically achievable concentrations if the clinical Cmax of the agent was known.
Compounds. The drugs and compounds olaparib (NSC753686), talazoparib (NSC767125), berzosertib (NSC777718), elimusertib (NSC800525), nedisertib (NSC802822), VX-984 (NSC792969), AZD-1390 (NSC803789), temozolomide (NSC362856), topotecan (NSC609699), trabectedin (NSC813783), staurosporine (NSC755774), and gemcitabine (NSC613327) were obtained from the National Cancer Institute (NCI) Developmental Therapeutics Program Chemical Repository. The FDA-approved anticancer drug set is available from the Developmental Therapeutics Program at https://dtp.cancer.gov/organization/dscb/obtaining/available_plates.htm. […] The stock solutions were prepared in dimethyl sulfoxide (DMSO, Sigma-Aldrich, St. Louis, MO, cat. D2650) at 400-fold the tested concentration and stored at -70 degrees C. Prior to their use, the stock solutions were diluted in fresh medium and the final DMSO concentration in the assay was 0.25% (v/v). All drugs and investigational agents were tested over a range starting from a high concentration at or near the clinical Cmax and decreasing in half-log increments. If the clinical Cmax for an agent had not been determined, the highest concentration tested was 10 microM.
Cell Lines. The patient-derived cancer cell (PDC) lines: 156681-154-R-J1-PDC, 283228-195-R-J1-PDC, 287954-098-R-J1-PDC, 292921-168-R-J2-PDC, 349418-098-R-PDC, 425362-245-T-J1-PDC, 556581-035-R-J1-PDC, and BL0293-F563-PDC were received from the NCI Patient-Derived Models Repository (PDMR, https://pdmr.cancer.gov). The established cell lines HS-SY-2 (RRID:CVCL_8719), MPNST, and SYO-1 (RRID:CVCL_7146) were obtained from the Sloan Kettering Institute. The alveolar soft parts sarcoma cell line ASPS-1 (RRID:CVCL_S738) was established at the NCI and grown from internal seed stocks. The following established cell lines were purchased from the American Type Culture Collection (ATCC, Manassas, VA): G-401 (ATCC, cat. CRL-1441, RRID:CVCL_0270), SW982 (ATCC, cat. HTB-93, RRID:CVCL_1734), VA-ES-BJ (ATCC, cat. CRL-2138, RRID:CVCL_1785), NCI-H719 (ATCC, cat. CRL-5837, RRID:CVCL_1582), NCI-H196 (ATCC, cat. CRL-5823, RRID:CVCL_1509), NCI-H841 (ATCC, cat. CRL-5845, RRID:CVCL_1595), NCI-H1618 (ATCC, cat. CRL-5879, RRID:CVCL_1480), NCI-H1876 (ATCC, cat. CRL-5902, RRID:CVCL_1503), DMS 114 (ATCC, cat. CRL-2066; RRID:CVCL_1174), NCI-H211 (ATCC, cat. CRL-5824; RRID:CVCL_1529), and SW 1271 (ATCC, cat. CRL-2177, RRID:CVCL_1716). The small cell lung cancer cell line COR-L88 was purchased from Sigma-Aldrich (cat. 92031917-1VL, RRID:CVCL_1141). The non-small cell lung cancer cell lines NCI-H226 (RRID:CVCL_1544) and NCI-H322M (RRID:CVCL_1557) were established at the NCI and grown from internal seed stocks. Pooled donor human umbilical vein endothelial cells (HUVEC, Lonza, cat. CC-2519) and human mesenchymal stem cells (hMSC, Lonza, cat. PT-2501) were purchased from Lonza (Walkersville, MD).
Cell Culture. All cells were maintained in an incubator at 37 degrees C and 5% CO2 with 95% humidity. […]
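Note: spheroids exposed to compounds for 7 days before readout.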
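Throughout, for viability, T/C: percent of vehicle control viability where 100% = DMSO-treated spheroids.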

`Cc1sc2c(c1C)C(c1ccc(Cl)cc1)=NC(CC(=O)Nc1ccc(O)cc1)c1nnc(C)n1-2` (stereo not given) + CC[C@@]1(O)C(=O)OCc2c1cc1n(c2=O)Cc2cc3c(CN(C)C)c(O)ccc3nc2-1 gave a pIC50 (second compound 0.003 µM) of 5.84, a pIC50 (second compound 0.00949 µM) of 5.71 and a pIC50 (second compound 0.03 µM) of 7.10. For the same molecule, the pIC50 (second compound 0.0949 µM) was over 8.02, the pIC50 (second compound 0.3 µM) was over 8.02 and the viability, T/C (second compound 0.003 µM, first compound 0.00949 µM) was 155%. The viability, T/C (second compound 0.003 µM, first compound 0.03 µM) was 103%, the viability, T/C (second compound 0.003 µM, first compound 0.0949 µM) was 81.1% and the viability, T/C (second compound 0.003 µM, first compound 0.3 µM) was 70%. The viability, T/C (second compound 0.003 µM, first compound 0.949 µM) was 61.1%, the viability, T/C (second compound 0.003 µM, first compound 3 µM) was 47.4% and the viability, T/C (second compound 0.00949 µM, first compound 0.00949 µM) was 68.4%. It also gave a viability, T/C (second compound 0.00949 µM, first compound 0.03 µM) of 88.6%, a viability, T/C (second compound 0.00949 µM, first compound 0.0949 µM) of 82.6% and a viability, T/C (second compound 0.00949 µM, first compound 0.3 µM) of 75.4%. For the same molecule, the viability, T/C (second compound 0.00949 µM, first compound 0.949 µM) was 62.4%, the viability, T/C (second compound 0.00949 µM, first compound 3 µM) was 42.8% and the viability, T/C (second compound 0.03 µM, first compound 0.00949 µM) was 50.1%. For the same molecule, the viability, T/C (second compound 0.03 µM, first compound 0.03 µM) was 54.9%, the viability, T/C (second compound 0.03 µM, first compound 0.0949 µM) was 51.3% and the viability, T/C (second compound 0.03 µM, first compound 0.3 µM) was 39%. It also gave a viability, T/C (second compound 0.03 µM, first compound 0.949 µM) of 29.8%, a viability, T/C (second compound 0.03 µM, first compound 3 µM) of 19.1% and a viability, T/C (second compound 0.0949 µM, first compound 0.00949 µM) of 22.5%. The viability, T/C (second compound 0.0949 µM, first compound 0.03 µM) was 21.8%, the viability, T/C (second compound 0.0949 µM, first compound 0.0949 µM) was 21% and the viability, T/C (second compound 0.0949 µM, first compound 0.3 µM) was 22.5%. The viability, T/C (second compound 0.0949 µM, first compound 0.949 µM) was 24.6%, the viability, T/C (second compound 0.0949 µM, first compound 3 µM) was 24.4% and the viability, T/C (second compound 0.3 µM, first compound 0.00949 µM) was 33.2%. The viability, T/C (second compound 0.3 µM, first compound 0.03 µM) was 29.1%, the viability, T/C (second compound 0.3 µM, first compound 0.0949 µM) was 31.1% and the viability, T/C (second compound 0.3 µM, first compound 0.3 µM) was 24.8%. For the same molecule, the viability, T/C (second compound 0.3 µM, first compound 0.949 µM) was 25.4% and the viability, T/C (second compound 0.3 µM, first compound 3 µM) was 16.5%.

Source: PubChem BioAssay AID1845195 (Molecular Pharmacology Branch, DTP, NCI, 2023)
